Active and inactive are the calls of the source. The calls are words filed in the database; no cut-off is given here.
Columns and labels:
[1] = biological target: T1, Protein cereblon/Non-receptor tyrosine-protein kinase TYK2 (Homo sapiens, UniProt P29597+Q96SW2); assay: PROTAC activity at CRBN/TYK2 in human Jurkat cells assessed as induction of degradation of TYK2 measured after 10 hrs by Western blot analysis; type: cell-based
Target sequence in this assay (P29597 whole entry): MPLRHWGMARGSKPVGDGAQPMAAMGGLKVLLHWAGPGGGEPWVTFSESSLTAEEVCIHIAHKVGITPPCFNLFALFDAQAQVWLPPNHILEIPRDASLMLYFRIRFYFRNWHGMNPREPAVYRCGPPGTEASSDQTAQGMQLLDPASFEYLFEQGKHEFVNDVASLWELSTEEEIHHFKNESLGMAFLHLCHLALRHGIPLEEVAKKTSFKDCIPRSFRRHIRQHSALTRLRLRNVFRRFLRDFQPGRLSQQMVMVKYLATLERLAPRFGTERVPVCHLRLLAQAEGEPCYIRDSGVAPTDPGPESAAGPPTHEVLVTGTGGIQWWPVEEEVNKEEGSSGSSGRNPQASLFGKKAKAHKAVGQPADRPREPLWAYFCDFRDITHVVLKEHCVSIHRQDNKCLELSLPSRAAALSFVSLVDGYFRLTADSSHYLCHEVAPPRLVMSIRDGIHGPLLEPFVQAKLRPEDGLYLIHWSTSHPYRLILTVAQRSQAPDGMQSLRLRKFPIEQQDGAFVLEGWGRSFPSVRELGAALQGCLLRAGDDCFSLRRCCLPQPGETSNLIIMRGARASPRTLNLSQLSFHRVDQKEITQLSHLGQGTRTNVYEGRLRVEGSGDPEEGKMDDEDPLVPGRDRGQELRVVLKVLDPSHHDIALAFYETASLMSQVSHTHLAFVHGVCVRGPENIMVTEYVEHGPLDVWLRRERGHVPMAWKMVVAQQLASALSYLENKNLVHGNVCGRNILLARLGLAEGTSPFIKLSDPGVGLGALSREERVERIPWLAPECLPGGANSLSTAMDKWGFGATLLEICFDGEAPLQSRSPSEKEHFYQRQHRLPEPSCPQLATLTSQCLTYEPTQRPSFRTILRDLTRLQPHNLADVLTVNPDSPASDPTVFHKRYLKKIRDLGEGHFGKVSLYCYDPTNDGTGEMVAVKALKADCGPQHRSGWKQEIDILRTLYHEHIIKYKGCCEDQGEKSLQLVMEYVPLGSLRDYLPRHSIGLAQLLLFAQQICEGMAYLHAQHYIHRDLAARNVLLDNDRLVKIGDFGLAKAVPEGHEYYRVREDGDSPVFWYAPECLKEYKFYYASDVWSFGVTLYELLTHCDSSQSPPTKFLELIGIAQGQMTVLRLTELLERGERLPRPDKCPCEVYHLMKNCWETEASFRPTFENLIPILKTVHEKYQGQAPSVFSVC
Target sequence in this assay (Q96SW2 whole entry): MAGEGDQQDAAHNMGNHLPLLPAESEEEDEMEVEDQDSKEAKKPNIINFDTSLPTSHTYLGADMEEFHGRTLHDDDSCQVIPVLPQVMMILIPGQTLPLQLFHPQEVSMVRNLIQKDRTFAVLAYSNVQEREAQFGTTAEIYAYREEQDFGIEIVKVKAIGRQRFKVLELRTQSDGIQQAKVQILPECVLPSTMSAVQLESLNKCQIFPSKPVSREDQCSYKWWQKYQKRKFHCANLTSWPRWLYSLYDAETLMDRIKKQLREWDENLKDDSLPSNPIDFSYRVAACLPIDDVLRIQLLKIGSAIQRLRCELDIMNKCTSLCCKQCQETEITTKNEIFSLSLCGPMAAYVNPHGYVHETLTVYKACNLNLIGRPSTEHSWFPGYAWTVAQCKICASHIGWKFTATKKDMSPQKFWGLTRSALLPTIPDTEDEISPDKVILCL

[2] = biological target: T1, Protein cereblon/Non-receptor tyrosine-protein kinase TYK2; assay: PROTAC activity at CRBN/TYK2 in human Jurkat cells assessed as induction of degradation of TYK2 at 100 nM measured after 10 hrs by Western blot analysis relative to control; type: cell-based
Target sequence in this assay (P29597 whole entry, looked up): as the sequence (P29597 whole entry) above
Target sequence in this assay (Q96SW2 whole entry, looked up): as the sequence (Q96SW2 whole entry) above

[3] = biological target: T1, Protein cereblon/Non-receptor tyrosine-protein kinase TYK2; assay: PROTAC activity at CRBN/TYK2 in human Jurkat cells assessed as induction of degradation of TYK2 at 10 nM measured after 10 hrs by Western blot analysis relative to control; type: cell-based
Target sequence in this assay (P29597 whole entry, looked up): as the sequence (P29597 whole entry) above
Target sequence in this assay (Q96SW2 whole entry, looked up): as the sequence (Q96SW2 whole entry) above

[4] = biological target: T1, Protein cereblon/Non-receptor tyrosine-protein kinase TYK2; assay: PROTAC activity at CRBN/TYK2 in human Jurkat cells assessed as induction of degradation of TYK2 at 1 nM measured after 10 hrs by Western blot analysis relative to control; type: cell-based
Target sequence in this assay (P29597 whole entry, looked up): as the sequence (P29597 whole entry) above
Target sequence in this assay (Q96SW2 whole entry, looked up): as the sequence (Q96SW2 whole entry) above

[5] = Metabolic stability in mouse liver microsomes assessed as intrinsic clearance measured up to 120 mins by LC-MS/MS analysis; type: ADME, Microsome; settings: read-out: CLH
[6] = Metabolic stability in mouse liver microsomes assessed as half life measured up to 120 mins by LC-MS/MS analysis; type: ADME, Microsome
[7] = Apparent permeability of the compound in human Caco-2 cells at 10 uM measured up to 120 min by LC-MS/MS analysis; type: ADME, cell-based
[8] = Half life in male ICR mouse at 1 mg/kg, iv measured up to 24 hrs by LC-MS/MS analysis; type: ADME, organism-based; settings: in vivo
[9] = Cmax in male ICR mouse at 10 mg/kg, po measured up to 24 hrs by LC-MS/MS analysis; type: ADME, organism-based; settings: in vivo
[10] = Cmax in male ICR mouse at 1 mg/kg, iv measured up to 24 hrs by LC-MS/MS analysis; type: ADME, organism-based; settings: in vivo
[11] = Tmax in male ICR mouse at 1 mg/kg, iv measured up to 24 hrs by LC-MS/MS analysis; type: ADME, organism-based; settings: in vivo
[12] = AUC (0 to infinity) in male ICR mouse at 10 mg/kg, po measured up to 24 hrs by LC-MS/MS analysis; type: ADME, organism-based; settings: in vivo
[13] = Half life in male ICR mouse at 10 mg/kg, po measured up to 24 hrs by LC-MS/MS analysis; type: ADME, organism-based; settings: in vivo
[14] = Oral bioavailability in male ICR mouse at 10 mg/kg measured up to 24 hrs by LC-MS/MS analysis; type: ADME, organism-based; settings: in vivo
[15] = AUC (0 to t) in male ICR mouse at 1 mg/kg, iv measured up to 24 hrs by LC-MS/MS analysis; type: ADME, organism-based; settings: in vivo
[16] = Tmax in male ICR mouse at 10 mg/kg, po measured up to 24 hrs by LC-MS/MS analysis; type: ADME, organism-based; settings: in vivo
[17] = AUC (0 to t) in male ICR mouse at 10 mg/kg, po measured up to 24 hrs by LC-MS/MS analysis; type: ADME, organism-based; settings: in vivo
[18] = AUC (0 to infinity) in male ICR mouse at 1 mg/kg, iv measured up to 24 hrs by LC-MS/MS analysis; type: ADME, organism-based; settings: in vivo
[19] = Inhibition of TYK2 dependent STAT3 phosphorylation in IL-6 stimulated human PBMC cells preincubated for 60 mins followed by IL-6 stimulation and measured after 60 mins by FACS assay; type: cell-based
[20] = Inhibition of TYK2 dependent STAT3 phosphorylation in IL-12 stimulated human PBMC cells preincubated for 60 mins followed by IL-12 stimulation and measured after 60 mins by FACS assay; type: cell-based
[21] = biological target: T1, Protein cereblon/Non-receptor tyrosine-protein kinase TYK2; assay: PROTAC activity at CRBN/TYK2 in human Jurkat cells assessed as induction of degradation of TYK2 at 100 ug/ml measured after 10 hrs by Western blot analysis; type: cell-based; settings: dose 100.0 µg/ml
Target sequence in this assay (P29597 whole entry, looked up): as the sequence (P29597 whole entry) above
Target sequence in this assay (Q96SW2 whole entry, looked up): as the sequence (Q96SW2 whole entry) above

[22] = biological target: T1, Protein cereblon/Non-receptor tyrosine-protein kinase TYK2; assay: PROTAC activity at CRBN/TYK2 in human HaCaT cells assessed as induction of degradation of TYK2 measured after 10 hrs by Western blot analysis; type: cell-based; settings: dose 1-100 nM, tested as the 2H-labelled form
Target sequence in this assay (P29597 whole entry, looked up): as the sequence (P29597 whole entry) above
Target sequence in this assay (Q96SW2 whole entry, looked up): as the sequence (Q96SW2 whole entry) above

Row | Compound | Activity [2] | Activity [3] | Activity [4] | other results
1 | CNC(=O)c1cnc(Nc2ccc(C(=O)NCCCCCNc3cccc4c3C(=O)N(C3CCC(=O)NC3=O)C4=O)cn2)cc1Nc1cccc(-c2ncc(F)cn2)c1OC (centres undefined) | 94% | 86% |  | DC50 [1]: 0.43 nM
2 | CNC(=O)c1cnc(Nc2ccc(C(=O)NCCCNc3cccc4c3C(=O)N(C3CCC(=O)NC3=O)C4=O)cn2)cc1Nc1cccc(-c2ncc(F)cn2)c1OC (centres undefined) | 21% | 18% |  | 
3 | CNC(=O)c1cnc(Nc2ccc(C(=O)N3CC4(CC(Nc5ccc6c(c5)C(=O)N(C5CCC(=O)NC5=O)C6=O)C4)C3)cn2)cc1Nc1cccc(-c2ncc(F)cn2)c1OC (centres undefined) | 48% | 62% | 17% | 
4 | CNC(=O)c1cnc(Nc2ccc(C(=O)NCCOCCOCCNc3cccc4c3C(=O)N(C3CCC(=O)NC3=O)C4=O)cn2)cc1Nc1cccc(-c2ncc(F)cn2)c1OC (centres undefined) | 56% | 5% |  | 
5 | CNC(=O)c1cnc(Nc2ccc(C(=O)N3CC4(C3)CN(c3ccc5c(c3)C(=O)N(C3CCC(=O)NC3=O)C5=O)C4)cn2)cc1Nc1cccc(-c2ncc(F)cn2)c1OC (centres undefined) | 68% | 83% | 46% | CLint scaled [5]: 53 mL/min/kg; half-life [6]: 104 min
6 | CNC(=O)c1cnc(Nc2ccc(C(=O)NCCCCNc3cccc4c3C(=O)N(C3CCC(=O)NC3=O)C4=O)cn2)cc1Nc1cccc(-c2ncc(F)cn2)c1OC (centres undefined) | 82% | 26% |  | CLint scaled [5]: 228 mL/min/kg; half-life [6]: 24 min
7 | CNC(=O)c1cnc(Nc2ccc(C(=O)NCCCCCCCCNc3cccc4c3C(=O)N(C3CCC(=O)NC3=O)C4=O)cn2)cc1Nc1cccc(-c2ncc(F)cn2)c1OC (centres undefined) | 74% | 72% |  | 
8 | CNC(=O)c1cnc(Nc2ccc(C(=O)N3CCC(CN4CCN(c5ccc6c(c5)C(=O)N(C5CCC(=O)NC5=O)C6=O)CC4)CC3)cn2)cc1Nc1cccc(-c2ncc(F)cn2)c1OC (centres undefined) | inactive | 78% | 2% | 
9 | CNC(=O)c1cnc(Nc2ccc(C(=O)N3CCC4(CC3)CCN(c3ccc5c(c3)C(=O)N(C3CCC(=O)NC3=O)C5=O)CC4)cn2)cc1Nc1cccc(-c2ncc(F)cn2)c1OC (centres undefined) | 13% | 65% | inactive | 
10 | CNC(=O)c1cnc(Nc2ccc(C(=O)NCCNc3cccc4c3C(=O)N(C3CCC(=O)NC3=O)C4=O)cn2)cc1Nc1cccc(-c2ncc(F)cn2)c1OC (centres undefined) | 15% | 12% |  | 
11 | CNC(=O)c1cnc(Nc2ccc(C(=O)NCCCCCCNc3cccc4c3C(=O)N(C3CCC(=O)NC3=O)C4=O)cn2)cc1Nc1cccc(-c2ncc(F)cn2)c1OC (centres undefined) | 69% | 48% |  | 
12 | CNC(=O)c1cnc(Nc2ccc(C(=O)NCCOCCNc3cccc4c3C(=O)N(C3CCC(=O)NC3=O)C4=O)cn2)cc1Nc1cccc(-c2ncc(F)cn2)c1OC (centres undefined) | 66% | 32% |  | 
13 | CNC(=O)c1cnc(Nc2ccc(C(=O)NCCCCCNc3ccc4c(c3)C(=O)N(C3CCC(=O)NC3=O)C4=O)cn2)cc1Nc1cccc(-c2ncc(F)cn2)c1OC (centres undefined) | 65% | 88% |  | CLint scaled [5]: 365 mL/min/kg; half-life [6]: 15 min
14 | CNC(=O)c1cnc(Nc2ccc(C(=O)N(C)C3CCN(c4ccc5c(c4)C(=O)N(C4CCC(=O)NC4=O)C5=O)CC3)cn2)cc1Nc1cccc(-c2ncc(F)cn2)c1OC (centres undefined) |  |  |  | Papp at 2 h, 10 µM [7]: 0.26 ×10⁻⁶ cm/s; half-life [8]: 39.6 min; Cmax [9]: 124 ng/mL; Cmax [10]: 1490 ng/mL; Tmax [11]: 4.8 min; AUC(0-inf) [12]: 163 ng·h/mL; half-life [13]: 72 min; bioavailability [14]: 2.2%; AUC(0-t) at 24 h [15]: 712 ng·h/mL; Tmax [16]: 18 min; half-life [6]: 41 min; AUC(0-t) at 24 h [17]: 159 ng·h/mL; AUC(0-inf) [18]: 717 ng·h/mL
15 | CNC(=O)c1cnc(Nc2ccc(C(=O)N3CC4(CCN(c5ccc6c(c5)C(=O)N(C5CCC(=O)NC5=O)C6=O)CC4)C3)cn2)cc1Nc1cccc(-c2ncc(F)cn2)c1OC (centres undefined) | 61% | 69% | 42% | 
16 | [2H]C([2H])([2H])NC(=O)c1nnc(NC(=O)C2CC2)cc1Nc1cccc(-c2ncn(C)n2)c1OC [DEUCRAVACITINIB] |  |  |  | IC50 [19]: 405 nM; IC50 [20]: 7.4 nM
17 | C[C@@H]1C[C@@H]([C@H](O)CC2CC(=O)NC(=O)C2)C(=O)[C@@H](C)C1 |  |  |  | Activity [21]: Active
18 | CNC(=O)c1cnc(Nc2ccc(C(=O)NCCCCCCNc3ccc4c(c3)C(=O)N(C3CCC(=O)NC3=O)C4=O)cn2)cc1Nc1cccc(-c2ncc(F)cn2)c1OC (centres undefined) | 62% | 46% |  | 
19 | CNC(=O)c1cnc(NC2CCN(CC3CCN(c4ccc5c(c4)C(=O)N(C4CCC(=O)NC4=O)C5=O)CC3)CC2)cc1Nc1cccc(-c2ncc(F)cn2)c1OC (centres undefined) |  |  |  | Papp at 2 h, 10 µM [7]: < 0.1 ×10⁻⁶ cm/s; half-life [6]: 62 min
20 | CNC(=O)c1nnc(NC(=O)C2CC2)cc1Nc1cccc(-c2ncn(C)n2)c1OC |  |  |  | Activity [22]: inactive; Activity ([2]; tested as the 2H-labelled form): inactive; Activity ([3]; tested as the 2H-labelled form): inactive
21 | CNC(=O)c1cnc(Nc2ccc(C(=O)N3CC(N4CCN(c5ccc6c(c5)C(=O)N(C5CCC(=O)NC5=O)C6=O)CC4)C3)cn2)cc1Nc1cccc(-c2ncc(F)cn2)c1OC (centres undefined) | 67% | 77% | 44% | 
22 | CNC(=O)c1cnc(Nc2ccc(C(=O)NCCCCNc3ccc4c(c3)C(=O)N(C3CCC(=O)NC3=O)C4=O)cn2)cc1Nc1cccc(-c2ncc(F)cn2)c1OC (centres undefined) | 48% | 42% |  | 
23 | CNC(=O)c1cnc(Nc2ccc(C(=O)N3CCC(CNc4ccc5c(c4)C(=O)N(C4CCC(=O)NC4=O)C5=O)CC3)cn2)cc1Nc1cccc(-c2ncc(F)cn2)c1OC (centres undefined) | 10% | 35% | 7% | 
24 | CNC(=O)c1cnc(Nc2ccc(C(=O)N3CCN(C4CCN(c5ccc6c(c5)C(=O)N(C5CCC(=O)NC5=O)C6=O)CC4)CC3)cn2)cc1Nc1cccc(-c2ncc(F)cn2)c1OC (centres undefined) | 7% | 17% | inactive | 

Reference: ChEMBL document CHEMBL6109122 (J Med Chem, 2025)
